Experimental data as given in patent US5786344A, “Camptothecin drug combinations and methods with reduced side effects” (priority 1995, dated 1998).
Where “and” joins values, the source holds several entries; their conditions need not be identical. Equal values may be shown once. Entries after “also recorded” stand apart in the source; their conditions may differ. Read-outs that look alike come from different tables or passages of the source. Values belong to the compound of their own block, whether it stands above or below them.

What was measured:
[1] = tested on: human and murine cell lines; conditions: 4-6 μM; cited from earlier work
[2] = cited from earlier work
[3] = cited from earlier work; remark: listed apart in the source
p-glycoprotein [4] = conditions: cited from earlier work
p-glycoprotein [5] = conditions: cited from earlier work; remark: listed apart in the source
glucuronosyltransferase = conditions: cited from earlier work
tumors = conditions: cited from earlier work
DNA topoisomerase 1 = conditions: cited from earlier work
[6] = tested on: multi-drug resistance (MDR) P388 cells; conditions: cited from earlier work
p-glycoprotein [7] = conditions: cited from earlier work; remark: listed apart in the source
[8] = tested on: breast, ovarian, non-small cell lung, colorectal, gastric and renal cell carcinomas; conditions: in vitro; cited from earlier work
p-glycoprotein [9] = conditions: cited from earlier work; remark: listed apart in the source
p-glycoprotein [10] = conditions: mouse, in vivo; cited from earlier work
[11] = tested on: O . volvulus microfilaria; conditions: cited from earlier work
[12] = Phase I pharmacokinetics of CPT-11, SN-38 and SN-38G in plasma/urine after 90 min iv infusion
Experimental: All patients met the standard laboratory criteria including criteria for adequate organ function. Informed, written consent was obtained from all patients prior to their first dose of CPT-11. The drug was given in 500 cc normal saline by intravenous infusion over 90 minutes on a weekly basis for four doses in a sixweek cycle. […] A second cycle was given with the same dose and schedule used during cycle 1. […] Patients who experienced dose limiting neutropenia were eligible to receive G-CSF at 5 μg/kg/day according to the criteria defined below.
To determine drug and metabolite levels, heparinized blood samples obtained on the first cycle of therapy, were centrifuged and the plasma was stored at -70° C. until analysis. CPT (camptothecin, 1 μg/ml, obtained from the National Cancer Institute, Bethesda, Md.) was used as an internal standard. One hundred μl of plasma was extracted with 2 ml of methanol, centrifuged at 2500×g for 10 min and the supernatant was evaporated to dryness. Reconstitution was done with 200 μl of methanol containing 0.1% 10M HCL (pH~2.0). For the estimation of SN-38G, plasma samples were extracted as described above. Prior to reconstitution, the samples were incubated with 1000 U of glucuronidase (Sigma Chemical Co., St. Louis, Mo.) for 2 hours at 37° C.
Analysis was done using a C18 column (μBondapak, 10 μm, 3.9×300 mm; Waters Associates, Milford, Mass.) preceded by a Novapak C18 guard column. […] Detection was monitored by a Hitachi F1050 Fluorescence detector (Hitachi Instruments Inc., Naperville, Ill.) with a λex at 375 nm and λem at 566 nm. […] SN-38G concentrations were determined as the increase in SN-38 concentrations following incubation with glucuronidase.
The plasma concentration-time data of CPT-11, SN-38 and SN-38G were analyzed by non-compartmental analysis using PCNONLIN (SCI, Lexington, Ky.). The area under the plasma concentration-time curve (AUC) from time zero (predose) to the time of the last quantifiable concentration (AUCt) was calculated by the trapezoidal rule. The AUC extrapolated to time infinity (AUCt →.infin.) was estimated by dividing the last quantifiable concentration by the terminal rate constant obtained by the log-linear regression of the terminal elimination phase. The AUC was the summation of AUCt and AUCt→.infin.. Clearance (CL) was estimated as the ratio of the dose and AUC.
The present study employed this principle to obtain an estimate of SN-38 excreted in the bile. Since glucuronidation is the major pathway of elimination of SN-38, the fraction of SN-38 not conjugated would be primarily excreted in the bile. The net biliary concentration of SN-38 would then be a resultant of its formation and elimination. This concentration was expressed as the "biliary ratio" which was the ratio of AUC of SN-38 to SN-38G. To control for individual variability in the amount of available drug, the ratio was multiplied by the AUC of CPT-11 to obtain a "biliary index" of SN-38.
The nonparametric Mann-Whitney test was employed to test for differences in pharmacokinetic outcomes between two patient groups, defined by the worst severity of diarrhea experienced in the first two cycles of CPT-11 treatment. Statistical tests were performed in the Number Cruncher Statistical System (Dr. Jerry Hintz, Kaysville, Utah). A two-sided significance level of less than or equal to 0.05 was considered statistically significant.

p-glycoprotein [13] = conditions: rat, in vivo
Experimental: Animal protocol: Female Wistar rats (~200 gm) having a permanent catheter installed in the right jugular vein were obtained from Charles River Breeding Laboratories (Wilmington, Mass.).
The catheter was flushed with 500 μl of physiologic saline after each drug administration.
After each sample the catheter was flushed with an equal volume of physiologic saline. The samples were immediately centrifuged at 2500×g for 10 minutes and the plasma obtained was stored at -70° C. until analysis.
Data Analysis: The plasma concentration-time profile of the control and pretreated groups of rats were analyzed using non-compartmental methods (PCNONLIN, SCI, Lexington, Ky.). […] The nonparametric Mann-Whitney test was used to test for differences in AUC between the control and pretreated groups.

[14] = cited from earlier work; remark: listed apart in the source
p-glycoprotein [15] = target: T1, p-glycoprotein (Homo sapiens, UniProt P08183); assay: in vitro; type: binding
T1 construct: membrane vesicles from the multidrug resistant breast tumor cell line; endogenous in cells; host or cells: MCF-7/Adr (multidrug resistant human breast cancer cell line), membrane vesicles
Text: FIG. 5. […]. Membrane vesicles from the multidrug resistant human breast cancer tumor cell line […] were used. […].

[16] = nude mice, accumulation in the intestine; cited from earlier work
[17] = animal studies; cited from earlier work
[18] = gastrointestinal tract or solution; cited from earlier work

T1 sequence (P08183 whole entry): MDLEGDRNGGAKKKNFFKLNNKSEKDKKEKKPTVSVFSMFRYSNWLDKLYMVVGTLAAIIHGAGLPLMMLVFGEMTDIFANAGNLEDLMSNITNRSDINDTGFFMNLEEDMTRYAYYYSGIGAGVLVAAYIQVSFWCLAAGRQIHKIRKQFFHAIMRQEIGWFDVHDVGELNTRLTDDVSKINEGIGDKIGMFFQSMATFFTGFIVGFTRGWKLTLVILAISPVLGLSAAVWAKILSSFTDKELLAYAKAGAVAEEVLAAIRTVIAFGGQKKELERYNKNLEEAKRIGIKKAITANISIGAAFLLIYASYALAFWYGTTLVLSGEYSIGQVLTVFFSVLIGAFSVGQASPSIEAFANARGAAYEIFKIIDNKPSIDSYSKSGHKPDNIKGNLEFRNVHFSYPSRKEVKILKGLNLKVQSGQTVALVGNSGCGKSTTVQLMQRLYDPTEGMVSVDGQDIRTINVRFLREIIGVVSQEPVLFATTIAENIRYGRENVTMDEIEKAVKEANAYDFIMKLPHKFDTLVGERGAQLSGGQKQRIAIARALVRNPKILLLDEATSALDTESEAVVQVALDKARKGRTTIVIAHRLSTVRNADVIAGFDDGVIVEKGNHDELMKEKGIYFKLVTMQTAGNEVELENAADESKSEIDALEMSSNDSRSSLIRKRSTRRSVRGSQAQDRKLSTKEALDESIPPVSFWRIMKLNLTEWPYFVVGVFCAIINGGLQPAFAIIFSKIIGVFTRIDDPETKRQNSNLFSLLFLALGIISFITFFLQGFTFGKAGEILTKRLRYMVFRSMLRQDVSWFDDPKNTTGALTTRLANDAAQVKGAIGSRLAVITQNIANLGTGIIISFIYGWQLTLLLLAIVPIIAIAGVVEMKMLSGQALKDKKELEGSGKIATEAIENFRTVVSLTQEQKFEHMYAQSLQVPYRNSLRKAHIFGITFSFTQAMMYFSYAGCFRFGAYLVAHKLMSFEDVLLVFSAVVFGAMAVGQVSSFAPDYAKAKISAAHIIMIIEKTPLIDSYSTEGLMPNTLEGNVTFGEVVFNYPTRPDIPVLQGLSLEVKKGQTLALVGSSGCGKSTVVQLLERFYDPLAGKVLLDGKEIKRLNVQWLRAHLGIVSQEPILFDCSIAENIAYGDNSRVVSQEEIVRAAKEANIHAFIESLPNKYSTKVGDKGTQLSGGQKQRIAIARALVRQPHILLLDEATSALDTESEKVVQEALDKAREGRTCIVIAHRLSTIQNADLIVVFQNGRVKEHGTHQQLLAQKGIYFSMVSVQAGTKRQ

Compound: CC/C(=C(\c1ccccc1)c1ccc(OCCN(C)C)cc1)c1ccccc1 [tamoxifen]
enhancement of intracellular concentration of cytotoxic drugs [1]: three-fold to ten-fold | bioavailability / dose reaching the systemic circulation ([2]; human, in vivo, po): 25-100% | half-life, single dose ([2]; human, in vivo): 18 h | half-life, steady state ([2]; human, in vivo): 7 h | dose-limiting toxicity ([3]; oral 150 mg/m2 twice a day): without dose-limiting toxicity

Compound: COC(=O)[C@H]1[C@H]2C[C@@H]3c4[nH]c5cc(OC)ccc5c4CCN3C[C@H]2C[C@@H](OC(=O)c2cc(OC)c(OC)c(OC)c2)[C@@H]1OC [reserpine, Yohimban-16-carboxylic acid, 11,17-dimethoxy-18-[(3,4,5-trimethoxybenzoyl)oxy]-, methyl ester, (3β,16β,17α,18β,20α)-]
inhibition of / interaction with p-glycoprotein (p-glycoprotein [4]): binds to p-glycoprotein and inhibits photo-labeling | inhibition of photoaffinity labeling of p-glycoprotein (p-glycoprotein [4]; photolabeling): showed inhibition | inhibition of digoxin transport (p-glycoprotein [5]): inhibited | oral absorption ([2]; human, in vivo, po): absorbed poorly and erratically | persistence of effects after discontinuation ([3]; oral): ≤ 4 weeks

Compound: Cc1c(-c2cnccn2)ssc1=S [Oltipraz, 4-methyl-5(2-pyrazinyl)-3H-1,2-dithiole-3-thione]
induction of phase II enzymes / glucuronidation (glucuronosyltransferase): inducer of GST and UDP-glucuronosyltransferase

Compound: CC[C@@]1(O)C(=O)OCc2c1cc1n(c2=O)Cc2cc3ccccc3nc2-1 [Camptothecin]
antitumor activity reduction (tumors; sodium salt vs closed lactone): about 10 fold | concentration producing nicks in the DNA (DNA topoisomerase 1): about 0.5 μM | dose-limiting toxicity in early clinical trials ([3]; sodium salt): severe dose-limiting hemorrhagic cystitis and unpredictable myelosuppression

Compound: C/C=C/C[C@@H](C)C(=O)[C@H]1C(=O)N[C@@H](C(C)C)C(=O)N(C)CC(=O)N(C)[C@@H](CC(C)C)C(=O)N[C@@H](C(C)C)C(=O)N(C)[C@@H](CC(C)C)C(=O)N[C@@H](C)C(=O)N[C@H](C)C(=O)N(C)[C@@H](CC(C)C)C(=O)N(C)[C@@H](CC(C)C)C(=O)N(C)[C@@H](C(C)C)C(=O)N1C [SDZ PSC 833]
inhibition of / interaction with p-glycoprotein (p-glycoprotein [4]): inhibited p-glycoprotein; also recorded: effective inhibitor; also recorded: effective at inhibiting p-glycoprotein | persistence of p-glycoprotein inhibition (p-glycoprotein [4]; single pulse exposure): still exhibiting inhibition of p-glycoprotein function even two days after a single pulse exposure | p-glycoprotein inhibition relative to comparator (p-glycoprotein [4]; vs verapamil, cyclosporine A, progesterone or anthracycline analogues): more effective than cyclosporine A; also recorded: stronger inhibitors than verapamil | activity relative to cyclosporine A in restoring drug sensitivity [6]: at least one order of magnitude more active than cyclosporine A | effect of acidic extracellular conditions on inhibitory activity (p-glycoprotein [7]; acidic pH): not affected by acidic extracellular conditions | inhibition of vinblastine transport (p-glycoprotein [7]): the most effective inhibitor | lowest inhibitory concentration (p-glycoprotein [7]): 10 ng/ml and 9 nM

Compound: CC/C(=C(\c1ccccc1)c1ccc(OCCNC)cc1)c1ccccc1 [N-desmethyltamoxifen]
enhancement of intracellular concentration of cytotoxic drugs [1]: three-fold to ten-fold | concentration ([2]; read-out: plasma level, oral tamoxifen 150 mg/m2 twice a day after 400 mg/m2 loading dose): 6 µM

Compound: CC[C@@]1(O)C(=O)OCc2c1cc1n(c2=O)Cc2cc3c(CN(C)C)c(O)ccc3nc2-1 [topotecan]
activity in clonogenic assay [8]: exhibited activity in breast, ovarian, non-small cell lung, colorectal, gastric and renal cell carcinomas

Compound: C=C[C@H]1C[N@@]2CC[C@H]1C[C@@H]2[C@@H](O)c1ccnc2ccc(OC)cc12 [quinidine]
inhibition of / interaction with p-glycoprotein (p-glycoprotein [4]): binds to p-glycoprotein and inhibits photo-labeling | inhibition of amphiphilic cation transport (p-glycoprotein [9]): inhibit | inhibition of digoxin transport (p-glycoprotein [5]): inhibited digoxin transport | oral absorption ([2]; human, in vivo, po): 90% | elimination by hepatic biotransformation ([2]; human, liver): 50-60%

Compound: CC[C@H](C)[C@H]1O[C@]2(CC[C@@H]1C)C[C@@H]1C[C@@H](C/C=C(\C)[C@@H](O[C@H]3C[C@H](OC)[C@@H](O[C@H]4C[C@H](OC)[C@@H](O)[C@H](C)O4)[C@H](C)O3)[C@@H](C)/C=C/C=C3\CO[C@@H]4[C@H](O)C(C)=C[C@@H](C(=O)O1)[C@]34O)O2 [Ivermectin]
sensitivity of p-glycoprotein-disrupted mice (p-glycoprotein [10]): increased sensitivity | cure of strongyloidiasis ([11]; single dose): can cure human strongyloidiasis | reduction of microfilaria in skin and ocular tissues ([11]; single oral dose 0.15 to 0.20 mg/kg): rapid and marked reduction | time to peak plasma concentration ([2]; oral): ≤ 4 h | half-life ([2]; plasma or terminal half-life): about 10 hours

Compound: CCc1c2c(nc3ccc(O[C@@H]4O[C@H](C(=O)O)[C@@H](O)[C@H](O)[C@H]4O)cc13)-c1cc3c(c(=O)n1C2)COC(=O)[C@]3(O)CC [SN-38G]
increase of AUC from 100 to 175 mg/m^2 ([12]; 1.75 fold dose range): 2.7 fold | urinary estimates of SN-38G, fold lower in patients with grade 3-4 diarrhea (average) ([12]; grade 3-4 diarrhea): 2.5 fold | increase in AUC between 145 and 175 mg/m^2 ([12]; in vivo): no increase | Overall Increase in AUC SN-38G (p-glycoprotein [13]): 1.93 fold | biliary radioactivity excreted over 24 h as ([14]; rats, 24 h): 22%

increase in AUC SN-38 from secondary peak ([12]; in vivo): ~12% | increase of AUC from 100 to 175 mg/m^2 ([12]; in vivo): 3.7 fold | interpatient variability of AUC (percent coefficient of variation) ([12]; in vivo): 2-44% | substrate of p-glycoprotein (p-glycoprotein [15]): substrates of p-glycoprotein | inhibition at 100 µM (p-glycoprotein [15]; human, mcf-7/adr membrane vesicles): 60%
Compound: CCc1c2c(nc3ccc(O)cc13)-c1cc3c(c(=O)n1C2)COC(=O)[C@]3(O)CC [SN-38, 7-ethyl-10-hydroxy-camptothecin]
potency relative to the parent drug CPT-11 (tumors; in vivo): 600-1000 times | cause of diarrhea [16]: responsible for the diarrhea | biliary radioactivity excreted over 24 h as ([14]; rat, in vivo): 9% | terminal half-life of closed ring forms ([2]; human, in vivo): 7.6 to 8.8 h | route of excretion [17]: excreted primarily into bile

Compound: O.O=P1(N(CCCl)CCCl)NCCCO1 (centres unmarked) [Cyclophosphamide, 2H-1,3,2-Oxazaphosphorin-2-amine, N,N-bis(2-chloroethyl)tetrahydro-, 2-oxide, monohydrate]
stability [18]: stable in the gastrointestinal tract
